Experimental data: ChEMBL document CHEMBL4229341, “3-Hydroxy-1,5-dihydro-2H-pyrrol-2-ones as novel antibacterial scaffolds against methicillin-resistant Staphylococcus aureus” (2018)
Values after ≈ are worked out from the molar mass of the structure shown.

Legend:
Format in all cases: functional
Staphylococcus aureus [1] = experiment: Antibacterial activity against methicillin resistant Staphylococcus aureus ATCC 33591 after 16 to 20 hrs by CLSI method
[2] = tested on: Staphylococcus epidermidis; experiment: Antibacterial activity against methicillin resistant Staphylococcus epidermidis ATCC 51625 after 16 to 20 hrs by CLSI method
Staphylococcus aureus [3] = experiment: Antibacterial activity against methicillin resistant Staphylococcus aureus ATCC 43300 after 16 to 20 hrs by CLSI method
[4] = tested on: Staphylococcus epidermidis; experiment: Antibacterial activity against methicillin resistant Staphylococcus epidermidis NR 46386 after 16 to 20 hrs by CLSI method
Staphylococcus aureus [5] = experiment: Antibacterial activity against methicillin resistant Staphylococcus aureus BAA-44 after 16 to 20 hrs by CLSI method
Staphylococcus aureus [6] = experiment: Antibacterial activity against methicillin resistant Staphylococcus aureus NR 45913 after 16 to 20 hrs by CLSI method
Staphylococcus aureus [7] = experiment: Antibacterial activity against methicillin resistant Staphylococcus aureus BAA-1685 after 16 to 20 hrs by CLSI method
Staphylococcus aureus [8] = experiment: Antibacterial activity against linezolid/methicillin resistant Staphylococcus aureus NR 45926 after 16 to 20 hrs by CLSI method
Staphylococcus aureus [9] = experiment: Antibacterial activity against linezolid/methicillin resistant Staphylococcus aureus NR 45924 after 16 to 20 hrs by CLSI method
Staphylococcus aureus [10] = experiment: Antibacterial activity against methicillin resistant Staphylococcus aureus NR 45898 after 16 to 20 hrs by CLSI method
Staphylococcus aureus [11] = experiment: Antibacterial activity against methicillin resistant Staphylococcus aureus NR 45906 after 16 to 20 hrs by CLSI method
Bacillus cereus = experiment: Antibacterial activity against Bacillus cereus

In the case of `COC1=C(c2ccc(C(F)(F)F)cc2)C2CCCCN2C1=O` (stereo not drawn), the MIC (Staphylococcus aureus [1]) is reported as > 128 µg/mL.

For `CCC1C(c2ccc(C(F)(F)F)cc2)=C(O)C(=O)N1CCCCO` (racemic), the MIC (Staphylococcus aureus [1]) was > 128 µg/mL.

`CC1CCN2C(=O)C(O)=C(c3ccc(C(F)(F)F)cc3)C2C1` (racemic) was tested, and the MIC (Staphylococcus aureus [1]) was 128 µg/mL (≈ 411 µM).

With `CCC1C(c2ccc(C(F)(F)F)cc2)=C(O)C(=O)N1C1CCCCC1` (racemic) the MIC [2] was 16 µg/mL (≈ 45.3 µM), the MIC (Staphylococcus aureus [3]) was 64 µg/mL (≈ 181 µM) and the MIC [4] was 2 µg/mL (≈ 5.66 µM). The MIC (Staphylococcus aureus [5]) was 32 µg/mL (≈ 90.6 µM), the MIC (Staphylococcus aureus [6]) was 8 µg/mL (≈ 22.6 µM) and the MIC (Staphylococcus aureus [1]) was 8 µg/mL (≈ 22.6 µM). It also gave an MIC (Staphylococcus aureus [7]) of 32 µg/mL (≈ 90.6 µM), an MIC (Staphylococcus aureus [8]) of 32 µg/mL (≈ 90.6 µM) and an MIC (Staphylococcus aureus [9]) of 32 µg/mL (≈ 90.6 µM). It also gave an MIC (Staphylococcus aureus [10]) of 8 µg/mL (≈ 22.6 µM) and an MIC (Staphylococcus aureus [11]) of 2 µg/mL (≈ 5.66 µM).

`CCCCCCN1C(=O)C(O)=C(c2ccc(C(F)(F)F)cc2)C1c1ccccc1` (racemic) gave an MIC (Staphylococcus aureus [1]) of 32 µg/mL (≈ 79.3 µM).

For `O=C1C(O)=C(c2ccc(Br)cc2)C2CCCN12` (stereo not drawn), the MIC (Staphylococcus aureus [1]) was 128 µg/mL (≈ 435 µM).

`C#CCN1C(=O)C(O)=C(c2ccc(C(F)(F)F)cc2)C1CC` (racemic) was tested, and the MIC (Staphylococcus aureus [1]) was 32 µg/mL (≈ 103 µM).

Compound `CCC1C(c2ccc(C(F)(F)F)cc2)=C(O)C(=O)N1Cc1ccc(C(F)(F)F)cc1` (racemic) has an MIC (Staphylococcus aureus [1]) of 32 µg/mL (≈ 74.5 µM).

For `CCC1C(c2ccc(C(F)(F)F)cc2)=C(O)C(=O)N1CC(C)C` (racemic), the MIC (Staphylococcus aureus [1]) was 16 µg/mL (≈ 48.9 µM).

In the case of `Cc1ccc(C2=C(O)C(=O)N3CCCCC23)cc1` (racemic), the MIC (Staphylococcus aureus [1]) is reported as > 128 µg/mL.

In the case of `O=C1C(O)=C(c2ccc(Cl)cc2)C2CCCN12` (racemic), the MIC (Staphylococcus aureus [1]) is reported as > 128 µg/mL.

With `CC[C@H]1OC(=O)[C@H](C)[C@@H](O[C@H]2C[C@@](C)(OC)[C@@H](O)[C@H](C)O2)[C@H](C)[C@@H](O[C@@H]2O[C@H](C)C[C@H](N(C)C)[C@H]2O)[C@](C)(O)C[C@@H](C)C(=O)[C@H](C)[C@@H](O)[C@]1(C)O` [ERYTHROMYCIN] the MIC (Staphylococcus aureus [8]) was 0.5 µg/mL (≈ 0.681 µM) and the MIC (Staphylococcus aureus [9]) was 0.5 µg/mL (≈ 0.681 µM).

For `CCCCCCN1C(=O)C(O)=C(c2ccc(C(F)(F)F)cc2)C1CCCC` (racemic), the MIC (Staphylococcus aureus [1]) was 32 µg/mL (≈ 83.5 µM).

For `O=C1C(O)=C(c2ccc(Cl)cc2)C2CCCCN12` (racemic), the MIC (Staphylococcus aureus [1]) was > 128 µg/mL.

With `CCC1C(c2ccc(C(F)(F)F)cc2)=C(O)C(=O)N1C(C)c1ccccc1` (stereo not drawn) the MIC (Staphylococcus aureus [1]) was 32 µg/mL (≈ 85.2 µM).

For `O=C1C(O)=C(c2ccc(C(F)(F)F)cc2)C2CCCCN12` (stereo not drawn), the MIC (Staphylococcus aureus [1]) was 32 µg/mL (≈ 108 µM).

`CCC1NC(=O)C(O)=C1c1ccc(C(F)(F)F)cc1` (racemic) was tested, and the MIC (Staphylococcus aureus [1]) was 128 µg/mL (≈ 472 µM).

`CCC1C(c2ccc(C(F)(F)F)cc2)=C(O)C(=O)N1Cc1ccncc1` (racemic) was tested, and the MIC (Staphylococcus aureus [1]) was 64 µg/mL (≈ 177 µM).

For `O=C1C(O)=C(c2ccc(O)cc2)C2CCCN12` (stereo not drawn), the MIC (Bacillus cereus) was 50 to 100 µg/mL (≈ 216 to 432 µM) and the MIC (Staphylococcus aureus [1]) was > 128 µg/mL.

In the case of `O=C1C(O)=C(c2cccs2)C2CCCCN12` (stereo not drawn), the MIC (Staphylococcus aureus [1]) is reported as 16 µg/mL (≈ 68 µM).

In the case of `CCC1C(c2ccc(C(F)(F)F)cc2)=C(O)C(=O)N1Cc1ccc(-c2ccccc2)cc1` (racemic), the MIC (Staphylococcus aureus [1]) is reported as 64 µg/mL (≈ 146 µM).

With `Cc1ccc(C2=C(O)C(=O)N3CCCC23)cc1` (racemic) the MIC (Staphylococcus aureus [1]) was 128 µg/mL (≈ 558 µM).

`CCCCCCN1C(=O)C(O)=C(c2ccc(C(F)(F)F)cc2)C1CC` (racemic) showed an MIC [2] of 4 µg/mL (≈ 11.3 µM), an MIC (Staphylococcus aureus [3]) of 64 µg/mL (≈ 180 µM) and an MIC [4] of 8 µg/mL (≈ 22.5 µM). It also gave an MIC (Staphylococcus aureus [5]) of 64 µg/mL (≈ 180 µM), an MIC (Staphylococcus aureus [6]) of 32 µg/mL (≈ 90 µM) and an MIC (Staphylococcus aureus [1]) of 2 µg/mL (≈ 5.63 µM). For the same compound, the MIC (Staphylococcus aureus [7]) was 64 µg/mL (≈ 180 µM), the MIC (Staphylococcus aureus [8]) was 32 µg/mL (≈ 90 µM) and the MIC (Staphylococcus aureus [9]) was 64 µg/mL (≈ 180 µM). For the same compound, the MIC (Staphylococcus aureus [10]) was 32 µg/mL (≈ 90 µM) and the MIC (Staphylococcus aureus [11]) was 4 µg/mL (≈ 11.3 µM).

In the case of `O=C1C(O)=C(c2cccs2)C2CCCN12` (stereo not drawn), the MIC (Staphylococcus aureus [1]) is reported as > 128 µg/mL.

With `O=C1C(O)=C(c2ccccc2[N+](=O)[O-])C2CCCN12` (stereo not drawn) the MIC (Staphylococcus aureus [1]) was > 128 µg/mL.

With `O=C1C(O)=C(c2ccccc2)C2CCCCN12` (stereo not drawn) the MIC (Staphylococcus aureus [1]) was > 128 µg/mL.

For `CCC1C(c2ccc(C(F)(F)F)cc2)=C(O)C(=O)N1c1ccccc1` (racemic), the MIC [2] was 8 µg/mL (≈ 23 µM), the MIC (Staphylococcus aureus [3]) was 64 µg/mL (≈ 184 µM) and the MIC [4] was 4 µg/mL (≈ 11.5 µM). For the same compound, the MIC (Staphylococcus aureus [5]) was 32 µg/mL (≈ 92.1 µM), the MIC (Staphylococcus aureus [6]) was 8 µg/mL (≈ 23 µM) and the MIC (Staphylococcus aureus [1]) was 8 µg/mL (≈ 23 µM). The MIC (Staphylococcus aureus [7]) was 32 µg/mL (≈ 92.1 µM), the MIC (Staphylococcus aureus [8]) was 8 µg/mL (≈ 23 µM) and the MIC (Staphylococcus aureus [9]) was 16 µg/mL (≈ 46.1 µM). For the same compound, the MIC (Staphylococcus aureus [10]) was 8 µg/mL (≈ 23 µM) and the MIC (Staphylococcus aureus [11]) was 8 µg/mL (≈ 23 µM).

`O=C1C(O)=C(c2ccc(C(F)(F)F)cc2)C2CCCN12` (stereo not drawn) gave an MIC (Staphylococcus aureus [1]) of 128 µg/mL (≈ 452 µM).

With `O=C1C(O)=C(c2ccc(Br)cc2)C2CCCCN12` (stereo not drawn) the MIC (Staphylococcus aureus [1]) was 32 µg/mL (≈ 104 µM).

Work on `CC(=O)NC[C@H]1CN(c2ccc(N3CCOCC3)c(F)c2)C(=O)O1` [LINEZOLID] yielded an MIC [2] of 0.25 µg/mL (≈ 0.741 µM), an MIC (Staphylococcus aureus [3]) of 1 µg/mL (≈ 2.96 µM) and an MIC [4] of 0.25 µg/mL (≈ 0.741 µM). It also gave an MIC (Staphylococcus aureus [5]) of 1 µg/mL (≈ 2.96 µM), an MIC (Staphylococcus aureus [6]) of 0.5 µg/mL (≈ 1.48 µM) and an MIC (Staphylococcus aureus [1]) of 1 µg/mL (≈ 2.96 µM). It also gave an MIC (Staphylococcus aureus [7]) of 1 µg/mL (≈ 2.96 µM) and an MIC (Staphylococcus aureus [10]) of 0.5 µg/mL (≈ 1.48 µM).

For `COc1ccc(C2=C(O)C(=O)N3CCCC23)cc1` (stereo not drawn), the MIC (Staphylococcus aureus [1]) was > 128 µg/mL.

For `COc1ccc(C2=C(O)C(=O)N3CCCCC23)cc1` (stereo not drawn), the MIC (Staphylococcus aureus [1]) was > 128 µg/mL.

Work on `C=CCN1C(=O)C(O)=C(c2ccc(C(F)(F)F)cc2)C1CC` (racemic) yielded an MIC (Staphylococcus aureus [1]) of 32 µg/mL (≈ 103 µM).

Compound `CCC1C(c2ccc(C(F)(F)F)cc2)=C(O)C(=O)N1Cc1ccc(OC)cc1OC` (racemic) has an MIC (Staphylococcus aureus [1]) of 32 µg/mL (≈ 75.9 µM).

`CCC1C(c2ccc(C(F)(F)F)cc2)=C(O)C(=O)N1C` (racemic) was tested, and the MIC (Staphylococcus aureus [1]) was 64 µg/mL (≈ 224 µM).

`O=C1C(O)=C(c2ccc(F)cc2)C2CCCCN12` (racemic) was tested, and the MIC (Staphylococcus aureus [1]) was > 128 µg/mL.

`CCCCCC1=C(O)C(=O)N2CCCC12` (stereo not drawn) was tested, and the MIC (Staphylococcus aureus [1]) was > 128 µg/mL.

With `O=C1C(O)=C(c2ccccc2)C2CCCN12` (stereo not drawn) the MIC (Bacillus cereus) was 50 to 100 µg/mL (≈ 232 to 465 µM) and the MIC (Staphylococcus aureus [1]) was > 128 µg/mL.

In the case of `CCCCCCN1C(=O)C(O)=C(c2ccc(C(F)(F)F)cc2)C1CCc1ccccc1` (racemic), the MIC (Staphylococcus aureus [1]) is reported as 64 µg/mL (≈ 148 µM).

In the case of `C=CCC1=C(O)C(=O)N2CCCC12` (stereo not drawn), the MIC (Staphylococcus aureus [1]) is reported as > 128 µg/mL.

For `O=C1C(O)=C(c2ccc(F)cc2)C2CCCN12` (racemic), the MIC (Staphylococcus aureus [1]) was > 128 µg/mL.

With `CCC1C(c2ccc(C(F)(F)F)cc2)=C(O)C(=O)N1Cc1ccccc1` (racemic) the MIC [2] was 8 µg/mL (≈ 22.1 µM), the MIC (Staphylococcus aureus [3]) was 32 µg/mL (≈ 88.6 µM) and the MIC [4] was 8 µg/mL (≈ 22.1 µM). The MIC (Staphylococcus aureus [5]) was 64 µg/mL (≈ 177 µM), the MIC (Staphylococcus aureus [6]) was 16 µg/mL (≈ 44.3 µM) and the MIC (Staphylococcus aureus [1]) was 8 µg/mL (≈ 22.1 µM). It also gave an MIC (Staphylococcus aureus [7]) of 32 µg/mL (≈ 88.6 µM), an MIC (Staphylococcus aureus [8]) of 16 µg/mL (≈ 44.3 µM) and an MIC (Staphylococcus aureus [9]) of 32 µg/mL (≈ 88.6 µM). For the same compound, the MIC (Staphylococcus aureus [10]) was 16 µg/mL (≈ 44.3 µM) and the MIC (Staphylococcus aureus [11]) was 8 µg/mL (≈ 22.1 µM).

`O=C1C(O)=C(c2ccc(C(F)(F)F)cc2)C2CCCCCN12` (racemic) gave an MIC (Staphylococcus aureus [1]) of 32 µg/mL (≈ 103 µM).
